Experimental data published in patent EP4781990A1, “PHARMACEUTICAL COMPOSITION CONTAINING HETEROARYL OXYNAPHTHALENE COMPOUND, PREPARATION METHOD THEREFOR, AND USE THEREOF” (Shanghai Runshi Medical Technology Co., Ltd, priority 2023, dated 2025).

Legend:
Type in all cases: physicochemical
[1] = Solid stability experiment of compound (A); settings: for Crystalline form: XRPD
[2] = Water sorption and desorption experiment (DVS, hygroscopicity); settings: 40-80% relative humidity, 25 °C
Description: In the following examples, the related analysis and detection conditions are as follows: 1. X-ray powder diffractometer (XRPD) • Instrument: BRUKER D8 Advance X-ray powder diffractometer, Germany. • Conditions: Cu-Kα radiation (λ = 1.5418 Å), tube voltage: 40 kV, tube current: 40 mA, 2θ scanning range: 3-40°, scanning step size: 0.02° (2θ), scanning speed: 10 s/step, sample tray: a zero background sample tray. • Method: a sample was spread on a zero background monocrystalline silicon sample tray and was gently pressed using a medicine spoon to be flat for measurement. 2. Chloride • Detection instrument: Dionex ICS-900 ion chromatograph • Column: Dionex Ion Pac AS11-HC anion chromatographic column (specification: 4 × 250 mm) • Determination method: 10 µL of each of the control solution and the sample solution was measured precisely and injected into the ion chromatograph, the chromatogram was recorded, and the chloride ion content was calculated based on peak area according to the external standard method. 3. Dynamic vapor sorption/desorption (DVS) analysis Instrument: DVS Intrinsic plus (SMS, UK). Method: a sample was placed in a tared sample basket, the weight of the sample was automatically measured, and the sample was analyzed according to the parameters in the table below.
The samples obtained in Preparation Example 2 and Preparation Example 3 were investigated for moisture sorption and desorption under the relative humidity of 40-80% using a dynamic vapor sorption (DVS) instrument at a temperature of 25 °C to determine the hygroscopicity of various salt forms. Table 6 Hygroscopicity experimental results of different salt forms of compound (I) (DVS, 40-80%)

[3] = Grinding stability experiment of compound (A); settings: XRPD

Purity/% ([1]; 40 °C/75% RH (open), 7 days) [%] | Crystalline form ([1]; 40 °C/75% RH (open), 7 days) | Purity/% ([1]; 60 °C (sealed), 7 days) [%] | Crystalline form ([1]; 60 °C (sealed), 7 days) | Purity/% ([1]; Initial state, 0 days) [%] | Crystalline form ([1]; Initial state, 0 days) | Crystalline form ([1]; room temperature/92.5% RH (open), 10 days) | Hygroscopicity (%) [2] [%] | Hygroscopicity (in words) [2] | Crystalline form change after grinding with organic solvent ([3]; ground after dropwise addition of methanol, ethanol, acetone, acetonitrile, or ethyl acetate) | Crystalline form change after grinding ([3]; mechanically ground using a mortar for 2 min and 5 min) | Molecule
99.86 | Crystalline form I | 99.85 | Crystalline form I | 99.85 | Crystalline form I | Crystalline form I | 0.65 | slightly hygroscopic | no crystalline form change occurred | no crystalline form change occurred | CNC(=O)c1cccc2cc(Oc3ccnc(NC(=O)c4ccc(N5C[C@@H](C)N[C@@H](C)C5)cc4)c3)ccc12 [Compound (A)]
– | – | – | – | – | – | – | 2.11 | – | – | – | Fumarate
– | – | – | – | – | – | – | 3.75 | – | – | – | Phosphate
